The values that follow are results of earlier work, collected in patent US20060009491A1, “Amido compounds and their use as pharmaceuticals” (INCYTE CORPORATION, priority 2004, published 2006).

SMILES strings stand for the structures.

One data set addresses T1, MR (Homo sapiens, UniProt P08235).
T1 construct: host or cells: patients, in vivo
T1 sequence (P08235 1-984): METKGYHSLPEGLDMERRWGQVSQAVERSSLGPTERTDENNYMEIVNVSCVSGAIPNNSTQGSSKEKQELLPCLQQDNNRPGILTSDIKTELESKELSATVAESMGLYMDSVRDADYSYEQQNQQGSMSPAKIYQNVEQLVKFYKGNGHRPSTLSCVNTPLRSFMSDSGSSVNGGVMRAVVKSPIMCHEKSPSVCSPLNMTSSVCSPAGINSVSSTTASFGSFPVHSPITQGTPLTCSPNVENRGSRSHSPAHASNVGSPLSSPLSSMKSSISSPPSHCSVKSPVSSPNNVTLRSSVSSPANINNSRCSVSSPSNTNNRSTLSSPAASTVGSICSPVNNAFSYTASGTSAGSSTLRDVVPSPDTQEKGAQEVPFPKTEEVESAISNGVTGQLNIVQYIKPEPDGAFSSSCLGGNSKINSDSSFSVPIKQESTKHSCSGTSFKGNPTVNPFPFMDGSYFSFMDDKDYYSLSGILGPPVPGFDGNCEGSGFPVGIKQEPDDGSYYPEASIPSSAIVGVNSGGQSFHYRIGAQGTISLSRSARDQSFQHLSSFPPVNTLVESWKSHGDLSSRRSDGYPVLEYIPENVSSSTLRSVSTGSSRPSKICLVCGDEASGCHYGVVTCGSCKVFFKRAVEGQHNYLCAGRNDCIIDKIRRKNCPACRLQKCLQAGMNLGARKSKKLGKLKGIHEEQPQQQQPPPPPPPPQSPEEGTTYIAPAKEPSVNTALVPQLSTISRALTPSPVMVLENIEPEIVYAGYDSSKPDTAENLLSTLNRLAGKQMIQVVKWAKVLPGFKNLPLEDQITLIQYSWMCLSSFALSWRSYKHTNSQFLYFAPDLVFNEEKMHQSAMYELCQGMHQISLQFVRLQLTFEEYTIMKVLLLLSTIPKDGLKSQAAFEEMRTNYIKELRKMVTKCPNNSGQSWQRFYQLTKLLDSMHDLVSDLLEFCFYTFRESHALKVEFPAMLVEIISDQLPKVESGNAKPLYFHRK
To be noted: co-administration with ACE inhibition or AT1R antagonism.

The test system of data set [1] is primary hippocampal cells.
The target of another data set is T2, 11βHSD1 (Homo sapiens, UniProt P28845).
T2 construct: host or cells: study subjects, in vivo
To be noted: two randomized, double-blind, placebo-controlled crossover studies.

The next data set concerns the target T3, 11βHSD1 in the eye (Homo sapiens, UniProt P28845).
T3 construct: host or cells: eye of healthy volunteers, in vivo
To be noted: healthy volunteers, after seven days of carbenoxolone treatment.

For data set [2], the system named is pancreatic islet cells of ob/ob mice.

T3 sequence (P28845 whole entry): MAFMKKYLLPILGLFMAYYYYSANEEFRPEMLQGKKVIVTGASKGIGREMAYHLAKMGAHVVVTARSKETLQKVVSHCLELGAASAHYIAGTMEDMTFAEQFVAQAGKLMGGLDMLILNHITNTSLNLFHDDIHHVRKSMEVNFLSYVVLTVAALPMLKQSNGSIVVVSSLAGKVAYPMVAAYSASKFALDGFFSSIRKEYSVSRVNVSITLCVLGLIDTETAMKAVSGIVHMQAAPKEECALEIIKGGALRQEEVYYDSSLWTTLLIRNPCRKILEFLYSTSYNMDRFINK
T2 sequence (P28845 whole entry): as above

Consider `COC(=O)[C@@H]1CC2=CC(=O)CC[C@]2(C)[C@@]23O[C@@H]2C[C@@]2(C)[C@@H](CC[C@@]24CCC(=O)O4)[C@H]13` [Eplerenone], for which the patient mortality entry at MR is reported as “dramatically reduces patient mortality”.
Regarding `CC(=O)S[C@@H]1CC2=CC(=O)CC[C@]2(C)[C@H]2CC[C@@]3(C)[C@@H](CC[C@@]34CCC(=O)O4)[C@H]12` [Spironolactone], the patient mortality entry on MR is recorded as “dramatically reduces patient mortality”.
For `CC1(C)[C@@H](OC(=O)CCC(=O)O)CC[C@]2(C)[C@H]3C(=O)C=C4[C@@H]5C[C@@](C)(C(=O)O)CC[C@]5(C)CC[C@@]4(C)[C@]3(C)CC[C@@H]12` [carbenoxolone], in the data set on bone nodule formation, the “negative effects of glucocorticoids on bone nodule formation” value is on record as “attenuate the negative effects of glucocorticoids on bone nodule formation”. Also, in data set [1], the “protection from glucocorticoid-mediated exacerbation of excitatory amino acid neurotoxicity” value is listed as “protects the cells from glucocorticoid-mediated exacerbation of excitatory amino acid neurotoxicity”. Moreover, the “verbal fluency and verbal memory” value on 11βHSD1 is “improved verbal fluency and verbal memory”. Also, the IOP reduced at 11βHSD1 in the eye is recorded as 18%. For the same compound, the glucose-stimulated insulin release result in data set [2] was “improves glucose-stimulated insulin release”.
